Laboratory results from patent US4891432A, “Phenoxy imidazole compound” (Yamanouchi Pharmaceutical Co., Ltd., priority 1986, dated 1990).

What was measured:
[1] = test system: Ehrlich solid tumor; assay: Test 5: Antitumor test against Ehrlich solid tumor; format: in vivo, ddY/SLC mice; details: intraperitoneal (1 to 9 days), day 21
Experimental: Antitumor test against Ehrlich solid tumor
Ehrlich tumor cells, 3×10^6, on Day 6 after intraperitoneal transplantation to ddY/SLC mice, were subcutaneously transplanted in the left abdomen of ddY/SLC mice (5 week age, male)--10 mice to a group (37 mice for the control group). The active component was intraperitoneally administered in a definite dose 24 hours after the transplantation, according to the scheduled shown in Table 4. The tumor growth inhibition was assessed by measuring the weight of each tumor on the 21th day after transplantation, and determining the tumor growth inhibition rate of the active component-administered group to the control group, according to the following equation.
(§1) Growth inhibition rate (%)=(C-T)/C×100
(§2) T: mean tumor weight in the active-component-administered group
(§3) C: mean tumor weight on the control group

[2] = test system: ddY mice; assay: Toxicity test (acute toxicity); format: in vivo; details: intraperitoneal, up to a dose of 800 mg/kg
Experimental: (§4) The active component (the Compound of Example 45) was orally administered to ddY mice (mean body weight of 30 g, male). […] Accordingly, the acute toxicity of the Compound is greater than 1,600 mg/kg (oral administration).
(§5) Accordingly, the acute toxicity of the Compound in the case of intraperitoneal administration is greater than 800 mg/kg.

[3] = Toxicity test (acute toxicity); format: in vivo; details: mouse, in vivo, male ddY mice
Experimental: as §4, §5

[4] = test system: mouse M5076 solid tumor; assay: Test 4: Anti-tumor test against mouse M5076 solid tumor; format: in vivo, BDF1/SLC mice; details: p.o. (1-9 days), day 14
Experimental: Anti-tumor test against mouse M5076 solid tumor
M5076 Tumor cells, 1×10^6, on day 14 after intraperitoneal transplantation to C57BL16/cRJ mice, were subcutaneously transplanted to the left abdomen of BDF1/SLC mice (8 week age, male)--10 mice to a group (20 mice for the control group). The active component was orally administered in a definite dose 24 hours after the transplantation according to the schedule shown in Table 3. The tumor growth inhibition was assessed by measuring the weight of each tumor on days 14 after the transplantation, and determining the tumor growth inhibition rate of the active component-administered group to the control group, according to the following equation.
as §1, §2, §3

[5] = test system: mouse mammalian MM-46 tumor; assay: Test 3: Test against mouse mammalian MM-46 tumor; format: in vivo, C3H/He/SLC mice
Experimental: Test against mouse mammalian MM-46 tumor
MM-46 tumor cells, 1×10^6, on day 6 after intraperitonal transplantation to C3 H/He/SLC mice, were intraperitoneally transplanted to C3H/He/SlC mice (6 week age, male)--10 mice to a group. The active component was orally administered in a definite dose 24 hours after the transplantation according to the schedule shown in Table 2. The tumor growth inhibition was evaluated as the percentage of the median survival day of the administered group versus that of the control group, according to the following equation.
T: median survival day of the administered group
C: median survival day of the control group

[6] = test system: mouse leukemia L1210 cells; assay: Effectiveness against mouse leukemia L1210 cells (in vitro test), cytotoxicity by trypan blue dye exclusion; format: cell-based; details: Mus musculus, 72 h; L1210 cells, 3 days, 37° C.; read-out: IC50 (mean dose producing 50%-killing of tumor cells)
Experimental: Effectiveness against mouse leukemia L1210 cells (in vitro test)
A suspension of cells in culture medium was transferred into wells in a microplate in an amount of 1×10^5 L1210-cells/well. Test sample diluted with a culture medium was added to the suspension in each well, and the mixture was incubated on the medium at 37° C. for 3 days in an atmosphere of air containing 5% carbon dioxide.
Thereafter, the incubated cells were recovered from the microplate and the number of live cells was counted by the dye exclusion test using a 0.5% solution of trypan blue and by using a hemocytometer.

CC(C)(CCCCOc1ccc(OCCCCCn2ccnc2)cc1)C(=O)O [Example 45, 6-[p-[5-(1-imidazolyl)pentyloxy]phenoxy]-2,2-dimethylhexanoic acid]
Growth Inhibition Rate ([1]; 50 mg/kg): 29.9%
Weight of Tumor ([1]; 50 mg/kg): 2.81 ± 1.55 g
Growth Inhibition Rate ([1]; 100 mg/kg): 49.1%
Weight of Tumor ([1]; 100 mg/kg): 2.04 ± 1.26 g
Growth Inhibition Rate ([1]; 200 mg/kg): 63.6%
Weight of Tumor ([1]; 200 mg/kg): 1.46 ± 0.50 g
Growth Inhibition Rate ([1]; 400 mg/kg): 57.6%
Weight of Tumor ([1]; 400 mg/kg): 1.70 ± 0.60 g
death [2]: no example of death was noted
LD50 ([3]; ip, intraperitoneal administration): > 800 mg/kg
LD50 ([3]; oral administration): > 1600 mg/kg
Growth Inhibition Rate ([4]; 100 mg/kg): 13.1%
Weight of Tumor ([4]; 100 mg/kg): 0.53 ± 0.09 g
Growth Inhibition Rate ([4]; 200 mg/kg): 19.7%
Weight of Tumor ([4]; 200 mg/kg): 0.49 ± 0.14 g
Growth Inhibition Rate ([4]; 400 mg/kg): 11.5%
Weight of Tumor ([4]; 400 mg/kg): 0.54 ± 0.12 g
Growth Inhibition Rate ([4]; 800 mg/kg): 23.0%
Weight of Tumor ([4]; 800 mg/kg): 0.47 ± 0.09 g
Median Survival Day ([5]; 100 mg/kg, p.o. (1-6 days)): 8.0 days
No. of 20-day Survivors ([5]; 100 mg/kg, p.o. (1-6 days)): 0/10
T/C (median survival) ([5]; 100 mg/kg, p.o. (1-6 days)): 114.3%
Median Survival Day ([5]; 200 mg/kg, p.o. (1-6 days)): 8.0 days
No. of 20-day Survivors ([5]; 200 mg/kg, p.o. (1-6 days)): 0/10
T/C (median survival) ([5]; 200 mg/kg, p.o. (1-6 days)): 114.3%
Median Survival Day ([5]; 400 mg/kg, p.o. (1-6 days)): 8.0 days
No. of 20-day Survivors ([5]; 400 mg/kg, p.o. (1-6 days)): 0/10
T/C (median survival) ([5]; 400 mg/kg, p.o. (1-6 days)): 114.3%
Median Survival Day ([5]; 800 mg/kg, p.o. (1-8 days)): 10.0 days
No. of 20-day Survivors ([5]; 800 mg/kg, p.o. (1-8 days)): 0/10
T/C (median survival) ([5]; 800 mg/kg, p.o. (1-8 days)): 142.9%
IC50 [6]: 42.5 µM
